Earlier results in US20210315915A1, “PHARMACEUTICAL COMPOSITIONS OF RIBAVIRIN” (GlaxoSmithKline Intellectual Property (No.2) Limited, priority 2015, published 2021).

Experiments:
[1] = FDA approved labeling of Rebetol
[2] = crystalline white powder

- multiple-dose half-life [1]: 12 days
- persistence in nonplasma compartments [1]: ≤ 6 months
- solubility in ethanol (96%) [2]: slightly soluble
- solubility in water [2]: freely soluble
Structure (SMILES): NC(=O)c1ncn([C@@H]2O[C@H](CO)[C@@H](O)[C@H]2O)n1 [ribavirin, 1-β-D-ribofuranosyl-1H-1,2,4-triazole-3-carboxamide]
